Earlier results, collected in patent US8629128B2, “Vitamin formulation” (priority 2005, dated 2014).

How the values were obtained:
[1] = tested on: normal and malignant keratinocytes; conditions: normal and malignant keratinocytes in culture
[2] = oxidizing agents and sunlight
[3] = tested on: calcium metabolism

SMILES: C=C1/C(=C\C=C2/CCC[C@]3(C)C([C@H](C)/C=C/[C@@H](O)C4CC4)CC[C@@H]23)C[C@@H](O)C[C@@H]1O (stereo partly drawn) [Calcipotriene, (5Z,7E,22E,24S)-24-cyclopropyl-9,10-secochola-5,7,10(19), 22 tetraene-1α,3β,24-triol]
- induction of differentiation of keratinocytes [1]: induces the differentiation
- inhibition of proliferation of keratinocytes [1]: inhibits proliferation

SMILES: CC1=C(/C=C/C(C)=C/C=C/C(C)=C/C(=O)O)C(C)(C)CCC1 [Tretinoin, (all-E)-3,7-dimethyl-9-(2,6,6-trimethyl-1-cyclohexen-1-yl)-2,4,6,8-nonatetraenoic acid]
- stability of tretinoin [2]: unstable in the presence of oxidizing agents and sunlight

SMILES: C=C1/C(=C\C=C2/CCC[C@]3(C)[C@@H]([C@H](C)CCCC(C)(C)O)CC[C@@H]23)C[C@@H](O)C[C@@H]1O [calcitriol, 1,25-dihydroxy Vitamin D3]
- effect on calcium metabolism [3]: potent effect on calcium metabolism
